Data set [1] in a line: Plasma stability, LC-MS/MS. The class given is in vitro ADME. Particulars: rat plasma, 37° C., final concentration 500 ng/ml, time points 0 minutes, 1, 2 and 4 hours; calculated half-life; read-out: Rat plasma (T½ (h)) (converted). As to the method:
Effect Embodiment 2 Experimental Data on Plasma Stability of Some Compounds
1. Preparation of 50 mM Phosphate Buffer:
The 5.750 g Na2HPO4, 1.141 g NaH2PO4. and 4.095 g NaCl (Shanghai Titan) weighed was dissolved in 1000 mL ultrapure water and the pH was adjusted to 7.4 to give 50 mM phosphate buffer containing 70 mM NaCl. The prepared phosphoric acid buffer solution was stored in the refrigerator at 4° C. and was valid for one week.
2. Preparation of compound stock solution:
1). 5 mg/mL of test compound: 5 mg of compound was weighted and dissolved in 1 mL of DMSO.
2). 20 mM control: 2.728 mg of Fuka was dissolved in 0.5 mL of DMSO. 3.878 mg of benzalkonium bromide was dissolved in 0.5 mL of DMSO (Amresco).
3. Preparation of experimental plasma:
The frozen plasma (human: Shanghai wise chemistry; Rats and mice: Shanghai Sciple-Bikai; Dogs and monkeys: Suzhou Xishan Zhongke) were taken out of the −80° C. refrigerator, immediately placed in a 37° C. water bath, slightly shaken to melt it, then the thawed plasma was poured into a centrifuge tube, centrifuged at 3000 rpm for 8 min, and the supernatant was taken for experiments. The pH value of plasma was detected by a pH Meter & Sensor (METTLER TOLEDO). Only plasma with a pH value between 7.4 and 8 was used in the experiment. The plasma was placed on an ice bath for later use.
4. Preparation of administration solution:
1). 125 µg/ml test compound solution: 5 μL of 5 mg/mL test compound (see step 2) was added into 195 μL DMSO; 500 μM control solution: 20 mM control stock solution (see step 2) was added to 195 μL DMSO.
2). 0.5% BSA phosphate buffer solution: 0.05 g BSA was added to 10 mL phosphate buffer solution (see step 1);
3). 5 µg/ml of test compound administration solution: 40 μL of 125 μg/mL of test compound solution was added into 960 μL 0.5% BSA phosphate buffer solution, stirred and mixed evenly, and the administration solution was preheated in a 37° C. water bath for 5 minutes.
20 μM reference substance administration solution: 40 μL of 500 μM reference substance administration solution was added into 960 μL 0.5% BSA phosphate buffer solution, stirred and mixed evenly, and the administration solution was preheated in a 37° C. water bath for 5 minutes.
5. 10 μL of 5 μg/mL of the test compound and 20 μM of the control substance administration solution were respectively added to the wells set at different time points (0 minutes, 1 hour, 2 hours and 4 hours) on the 96-well plate, and the number of duplicate samples was 3.
6. 500 μL of ACN (IS) containing 5% FA was added to the well set at 0 minute hour, then 90 μL of plasma was added, after mixing, sealing film was pasted and placed at 4° C. (number of duplicate samples was 3).
7. 90 μL of plasma was added to the wells with set time points of 1 hour, 2 hours and 4 hours respectively, the number of duplicate samples was 3, and timing was started (the final concentration of the test compound was 500 ng/ml; The control was 2 μM).
9. All samples (0 minutes, 1 hour, 2 hours and 4 hours) at different time points on a 96-well plate were shaken for 10 minutes at 600 rpm/min on an oscillator (MTS 2/4, IKA), and then the samples were centrifuged for 15 minutes at 5594×g in a centrifuge (Multifuge×3R, thermo Fisher).
10. 150 μL of supernatant was taken from the centrifuged sample and sent to LC-MS/MS for analysis (conventional polypeptide LC-MS/MS analysis method).

Data set [2] deals with T1, human kiss1 receptor (GPR54) (Homo sapiens, UniProt Q969F8).
T1 construct: host or cells: NFAT-bla CHO-K1 cells (Chinese hamster ovary), purchased recombinant cell line
T1 sequence (Q969F8 whole entry): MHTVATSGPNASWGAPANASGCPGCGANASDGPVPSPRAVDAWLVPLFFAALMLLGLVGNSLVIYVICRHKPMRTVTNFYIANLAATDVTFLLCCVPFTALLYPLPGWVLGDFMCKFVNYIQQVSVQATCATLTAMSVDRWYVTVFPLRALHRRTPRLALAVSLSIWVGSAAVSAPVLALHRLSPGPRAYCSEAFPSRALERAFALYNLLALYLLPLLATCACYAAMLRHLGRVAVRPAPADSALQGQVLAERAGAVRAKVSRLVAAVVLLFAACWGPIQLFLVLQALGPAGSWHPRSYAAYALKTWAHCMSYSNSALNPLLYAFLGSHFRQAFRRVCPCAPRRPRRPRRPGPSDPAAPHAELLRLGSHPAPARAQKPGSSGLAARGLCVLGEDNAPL
Nature of the data set: Kiss1 receptor (GPR54) binding activity of agonists, FRET detection in NFAT-bla CHO-K1 cells. The class given is cell-based. Particulars: GPR54; measured according to the method of effect Embodiment 1; preliminary data; read-out: Preliminary measurement data (GPR54) EC50.
Experimental: Effect Embodiment 1 Determination of Kiss1 Receptor (GPR54) Binding Activity of Kiss1 Receptor (GPR54) Agonist
The binding activity test of each compound from the above the embodiments with kiss1 receptor (GPR54) was performed by fluorescence energy resonance transfer (FRET) detection technology to detect EC50 values of polypeptides and peptide analogs. The cells used in this experiment were NFAT-bla CHO-K1 cells (k1720, invitrogen, thermosher) that express human kiss1 receptor (GPR54). The specific operations were as follows:
Day 1: Seeding Cells in Plate
1. Microscope (CKX41, OLYMPUS), object lens×4 times, ocular lens×10 times. The cells were ensured in a good condition.
2. Digesting the cells, adding 3 ml of 0.05% pancreatin into a culture dish; cells were placed in a 37° C., 5% CO2 incubator for 2 minutes (Thermo Fisher). After the cells became round under the microscope, 7 ml of culture medium was added. The formula of culture medium was as follows: DMEM 90%, dialzedfbS10, NEAA 0.1 mM, HEPES 25 mM, Penicillin 100 U/ml, Streptomycin 100 μm/ml, pH7.3. After blowing and stirring, it was transferred to 15 mL centrifuge tube (430790, Corning). Centrifuge at 1000 rpm for 5 min (5810R, Eppendorf) and the supernatant was discard.
3. Adding 7 mL of culture medium (DMEM+0.1% BSA), it was pipetting into single cell suspension, after counting with Bio-RAD counter, the cell density was adjusted to 312,500 cells/ml.
4. Cells were inoculated into 384 well plates at 32 μL per well, and the cell number was controlled at 10000 cells/well. 32 μl of culture medium was added into the blank control.
Day 2: Dosing and Data Analysis
1) The compound to be tested was prepared into 50 mM working solution with DMSO.
2) 40 μl of the working solution of the compound to be tested was added into column 2 of row A-H of U-shaped 96-well plate (3797, comings), and 60 μl of DMSO was added into column 3-11. 20 μl of compound solution was sucked from the second column to the third column with a multichannel pipette blowing and stirring evenly; 20 μl of compound solution was absorbed from the third column with a multichannel pipette, then added into the fourth column, blowed and stirred to mix well; the compound was serially diluted 4-fold to a total of 10 concentrations. Column 1 and column 12 of 96-well plates were supplemented with 40 μl DMSO.
2. Intermediate Plate Configuration
1) AU-shaped 96-well plate was used, 199 μL of culture medium (DMEM+0.1% BSA) was added to each well, 1 μL of diluted compound (or DMSO) was sucked from 1000× compound plate and added into the 96-well plate at the corresponding position, blowed and stirred to mix well.
2) Homemade positive compounds and compounds to be tested were added. The cell culture plate was took out from the incubator and cells state was observed under microscope. Diluted compound in the intermediate plate or DMSO was added into the cell, 8 μl per well.
3) Cells were cultured in 37° C. and 5% CO2 for 4 hours.
3. The Substrate was Added to Detect the Binding of the Drug to the Receptor
1) 1 μmol/L CCF-4AM solution and buffer solution B, C, D were equilibrated to room temperature. LiveBLAZER™-FRET B/G Loading Kit (K1095, thermo Fisher) containing CCF-4AM and solution B, solution C, solution D were also available from Invitrogen (K1157, thermo Fisher).
2) 6× loading solution was prepared: 6 μl of CCF-4AM dissolved solution A, 60 μl of solution b, 904 μl of solution c, and 30 μl of solution D were pipetted into EP tube, blowed and stirred to mix well.
3) 8 μl of the above-mentioned liquid was sucked with a multichannel pipette, added into a 96-well plate, and incubated for 2 hours at room temperature.
4) The PerkinElmer detector was used to detect the luminous signals of each hole. FI mode, λex=409 nm, λem1=460 nm, λem2=530 nm.
4. Data Processing Using Graphpad Prism 5 (GraphPad Software. Inc)
Effective rate %=(Signal−Min)/(Max−Min)×100%.

The values below come from patent US11427615B2, “Peptide compound and application thereof, and composition containing peptide compound” (XDCEXPLORER (SHANGHAI) CO., LTD., priority 2017, dated 2022).

Molecules are shown by their SMILES. Non-standard residues stand in square brackets, D forms with d. Residues, ends and D or L forms follow the SMILES beside them. *: point of attachment. X5 = CCCCCCCCCCCC(=O)NCCOCCOCCOCCOCCOCCSSCCCC(=O)*; C18 diacid = O=C(O)CCCCCCCCCCCCCCCCC(=O)*; Oic = O=C(O)[C@@H]1C[C@@H]2CCCC[C@@H]2N1; PEG8 = NCCOCCOCCOCCOCCOCCOCCOCCOCCC(=O)O; Pro(4,4-F2) = O=C(O)[C@@H]1CC(F)(F)CN1; dAla(2-furyl) = N[C@H](Cc1ccco1)C(=O)O; Arg(Me) = CNC(=N)NCCC[C@H](N)C(=O)O; Palmitoyl = CCCCCCCCCCCCCCCC(=O)*; Hyp = O=C(O)[C@@H]1C[C@@H](O)CN1; AllylGly = C=CC[C@H](N)C(=O)O; PEG4 = NCCOCCOCCOCCOCCC(=O)O; Lauroyl = CCCCCCCCCCCC(=O)*; Ac6c = NC1(C(=O)O)CCCCC1; AEEA = NCCOCCOCC(=O)O; azaGly = NNC(=O)O

In general, EC50 refers to the concentration that produces a half-maximal response. Take `CCCCCCCCCCCCCCCC(=O)NCCOCCOCCOCCOCCOCCOCCOCCOCCC(=O)NCC(=O)NCC(=O)N[C@H](Cc1ccco1)C(=O)N1CC(F)(F)C[C@H]1C(=O)N[C@@H](CC(N)=O)C(=O)N[C@H](C(=O)N[C@@H](Cc1ccccc1)C(=O)NC1(C(=O)N[C@@H](CC(C)C)C(=O)N[C@@H](CCCNC(=N)NC)C(=O)N[C@@H](Cc2c[nH]c3ccccc23)C(N)=O)CCCCC1)[C@@H](C)O` [YA-220, Palm-PEG8-Gly-Gly-D-3Fua-Pro(diF)-Asn-Thr-Phe-A6c-Leu-Arg(Me)-Trp-NH2] ({Palmitoyl-PEG8}-GG[dAla(2-furyl)][Pro(4,4-F2)]NTF[Ac6c]L[Arg(Me)]W-NH2): the half-life at 500 ng/ml in data set [1] was 59 h. Further, the EC50 in data set [2] came to 0.023 nM.
For `CNC(=N)NCCC[C@H](NC(=O)[C@H](CC(C)C)NC(=O)NNC(=O)[C@H](Cc1ccccc1)NC(=O)[C@@H](NC(=O)[C@H](CC(N)=O)NC(=O)[C@@H]1C[C@@H]2CCCC[C@@H]2N1C(=O)[C@@H](Cc1ccc(O)cc1)NC(C)=O)[C@@H](C)O)C(=O)N[C@@H](Cc1c[nH]c2ccccc12)C(N)=O` [YA-230, Ac-D-Tyr-Oic-Asn-Thr-Phe-azaGly-Leu-Arg(Me)-Trp-NH2] (Ac-[dY][Oic]NTF[azaGly]L[Arg(Me)]W-NH2), in that order: 3.64 h and 0.04 nM.
For `CCCCCCCCCCCCCCCC(=O)NCCOCCOCCOCCOCCOCCOCCOCCOCCC(=O)NCC(=O)NCC(=O)N[C@H](Cc1ccc(O)cc1)C(=O)N1C[C@H](O)C[C@H]1C(=O)N[C@@H](CC(N)=O)C(=O)N[C@H](C(=O)N[C@@H](Cc1ccccc1)C(=O)NC1(C(=O)N[C@@H](CC(C)C)C(=O)N[C@@H](CCCNC(=N)NC)C(=O)N[C@@H](Cc2c[nH]c3ccccc23)C(N)=O)CCCCC1)[C@@H](C)O` [YA-264, Palm-PEG 8-Gly-Gly-D-Tyr-Hyp-Asn-Thr-Phe-A6C-Leu-Arg(Me)-Trp-NH2] ({Palmitoyl-PEG8}-GG[dY][Hyp]NTF[Ac6c]L[Arg(Me)]W-NH2), in that order: 13 h and 0.029 nM.
For `CNC(=N)NCCC[C@H](NC(=O)[C@H](CC(C)C)NC(=O)NNC(=O)[C@H](Cc1ccccc1)NC(=O)[C@@H](NC(=O)[C@H](CC(N)=O)NC(=O)C1(NC(=O)[C@@H](Cc2ccco2)NC(C)=O)CCCCC1)[C@@H](C)O)C(=O)N[C@@H](Cc1c[nH]c2ccccc12)C(N)=O` [YA-271, Ac-(D-2Fua)-A6c-Asn-Thr-Phe-azaGly-Leu-Arg(Me)-Trp-NH2] (Ac-[dAla(2-furyl)][Ac6c]NTF[azaGly]L[Arg(Me)]W-NH2), in data set [1], the half-life at 500 ng/ml was 15.6 h. In addition, the half-maximal effective concentration (EC50) in data set [2] came out at 0.025 nM.
For `CNC(=N)NCCC[C@H](NC(=O)[C@H](CC(C)C)NC(=O)NNC(=O)[C@H](Cc1ccccc1)NC(=O)[C@@H](NC(=O)[C@H](CC(N)=O)NC(=O)[C@@H]1C[C@@H](O)CN1C(=O)[C@@H](Cc1ccc(O)cc1)NC(=O)COCCOCCNC(=O)COCCOCCNC(=O)CCCCCCCCCCCCCCCCC(=O)O)[C@@H](C)O)C(=O)N[C@@H](Cc1c[nH]c2ccccc12)C(N)=O` [YA-273, C 18 diacid-OEG-OEG-D-Tyr-Hyp-Asn-Thr-Phe-azaGly-Leu-Arg(Me)-Trp-NH2] ({C18 diacid-AEEA-AEEA}-[dY][Hyp]NTF[azaGly]L[Arg(Me)]W-NH2), in that order: 166 h and 0.05 nM.
For `CCCCCCCCCCCCCCCC(=O)NCCOCCOCCOCCOCCOCCOCCOCCOCCC(=O)NCC(=O)NCC(=O)N[C@H](Cc1ccc(O)cc1)C(=O)N1C[C@H](O)C[C@H]1C(=O)N[C@@H](CC(N)=O)C(=O)N[C@H](C(=O)N[C@@H](Cc1ccccc1)C(=O)N[C@H](Cc1ccco1)C(=O)N[C@@H](CC(C)C)C(=O)N[C@@H](CCCNC(=N)NC)C(=O)N[C@@H](Cc1c[nH]c2ccccc12)C(N)=O)[C@@H](C)O` [YA-288, Palm-PEG 8-Gly-Gly-D-Tyr-Hyp-Asn-Thr-Phe-(D-2Fua)-Leu-Arg(Me)-Trp-NH2] ({Palmitoyl-PEG8}-GG[dY][Hyp]NTF[dAla(2-furyl)]L[Arg(Me)]W-NH2), in that order: 27.5 h and 0.018 nM.
For `CCCCCCCCCCCC(=O)NCCOCCOCCOCCOCCC(=O)NCCOCCOCCOCCOCCC(=O)N[C@H](Cc1ccc(O)cc1)C(=O)N1C[C@H](O)C[C@H]1C(=O)N[C@@H](CC(N)=O)C(=O)N[C@H](C(=O)N[C@@H](Cc1ccccc1)C(=O)NNC(=O)N[C@@H](CC(C)C)C(=O)N[C@@H](CCCNC(=N)NC)C(=O)N[C@@H](Cc1c[nH]c2ccccc12)C(N)=O)[C@@H](C)O` [YA-296, Dodecanoyl-PEG4-PEG4-D-Tyr-Hyp-Asn-Thr-Phe-azaGly-Leu-Arg(Me)-Trp-NH2] ({Lauroyl-PEG4-PEG4}-[dY][Hyp]NTF[azaGly]L[Arg(Me)]W-NH2), in data set [1], the half-life at 500 ng/ml was 2.73 h. In data set [2], the EC50 stood at 0.011 nM.
For `CCCCCCCCCCCCCCCC(=O)NCCOCCOCCOCCOCCOCCOCCOCCOCCC(=O)N[C@H](Cc1ccc(O)cc1)C(=O)N1C[C@H](O)C[C@H]1C(=O)N[C@@H](CC(N)=O)C(=O)N[C@H](C(=O)N[C@@H](Cc1ccccc1)C(=O)NNC(=O)N[C@@H](CC(C)C)C(=O)N[C@@H](CCCNC(=N)NC)C(=O)N[C@@H](Cc1c[nH]c2ccccc12)C(N)=O)[C@@H](C)O` [YA-298, Palm-PEG8-D-Tyr-Hyp-Asn-Thr-Phe-azaGly-Leu-Arg(Me)-Trp-NH2] ({Palmitoyl-PEG8}-[dY][Hyp]NTF[azaGly]L[Arg(Me)]W-NH2), in that order: 12.7 h and 0.016 nM.
For `CCCCCCCCCCCC(=O)NCCOCCOCCOCCOCCOCCSSCCCC(=O)N[C@H](Cc1ccc(O)cc1)C(=O)N1C[C@H](O)C[C@H]1C(=O)N[C@@H](CC(N)=O)C(=O)N[C@H](C(=O)N[C@@H](Cc1ccccc1)C(=O)NNC(=O)N[C@@H](CC(C)C)C(=O)N[C@@H](CCCNC(=N)NC)C(=O)N[C@@H](Cc1c[nH]c2ccccc12)C(N)=O)[C@@H](C)O` [YA-324, Dodecanoyl-(NH-PEG5-CH2CH2S)-(4-thiol-butanoyl)-(D-Tyr)-Hyp-Asn-Thr-Phe-azaG-Leu-Arg(Me)-Trp-NH2] (X5-[dY][Hyp]NTF[azaGly]L[Arg(Me)]W-NH2), in data set [1], the half-life at 500 ng/ml is 0.29 h. For the same molecule, in data set [2], the concentration for a half-maximal effect (EC50) was 0.007 nM.
For `C=CC[C@H](NC(=O)[C@H](Cc1ccccc1)NC(=O)[C@@H](NC(=O)[C@H](CC(N)=O)NC(=O)[C@@H]1C[C@@H](O)CN1C(=O)[C@@H](Cc1ccc(O)cc1)NC(=O)CCOCCOCCOCCOCCOCCOCCOCCOCCNC(=O)CCCCCCCCCCCCCCC)[C@@H](C)O)C(=O)N[C@@H](CC(C)C)C(=O)N[C@@H](CCCNC(=N)NC)C(=O)N[C@@H](Cc1c[nH]c2ccccc12)C(N)=O` [YA-360, Palm-PEG8-Gly-Gly-(D-Tyr)-Hyp-Asn-Thr-Phe-A1g-Leu-Arg(Me)-Trp-NH2] ({Palmitoyl-PEG8}-[dY][Hyp]NTF[AllylGly]L[Arg(Me)]W-NH2), in that order: 79.9 h and 0.006 nM.
